Data published in patent publication US5162336A, “Tetrahydro-pyrido-indoles as cholecystokinin and gastrin antagonists” (Rhone-Poulenc Rorer Pharmaceuticals Inc., priority 1990, dated 1992).

Biological target: T1, Gastrin receptor (Cavia porcellus, UniProt H0VZC5)
T1 construct: The fundic mucosa is gently scraped off the submucosa; from tissue; host or cells: gastric glands from fundic mucosa of Hartley guinea pig
T1 sequence (H0VZC5 1-426): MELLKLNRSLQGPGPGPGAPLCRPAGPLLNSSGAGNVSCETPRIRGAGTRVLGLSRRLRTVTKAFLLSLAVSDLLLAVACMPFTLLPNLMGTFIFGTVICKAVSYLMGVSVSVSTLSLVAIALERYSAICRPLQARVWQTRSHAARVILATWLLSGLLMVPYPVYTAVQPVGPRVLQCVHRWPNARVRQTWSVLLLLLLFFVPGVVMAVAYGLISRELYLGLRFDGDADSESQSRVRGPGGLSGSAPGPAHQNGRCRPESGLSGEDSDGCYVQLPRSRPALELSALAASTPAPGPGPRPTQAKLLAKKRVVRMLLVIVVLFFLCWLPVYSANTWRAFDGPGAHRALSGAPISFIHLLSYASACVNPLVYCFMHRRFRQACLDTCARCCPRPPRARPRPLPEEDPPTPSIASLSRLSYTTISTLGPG
Experiment: Gastrin receptor binding assay (displacement of 125I-(Leu-15)-Gastrin from guinea pig fundic glands)
Parameters: species or system guinea pig (Hartley Strain)
Details: guinea pig fundic mucosa glands, 25° C., 30 min, read-out: In vitro Binding Data IC50 Gastrin
Protocol: (a) Phosphate Buffered Saline (PBS): 8.743 g NaCl, 523 mg K2 HPO4 and 76.8 mg NaH2 PO4 is dissolved in 1.0 liter of deionized water and the pH of the solution is adjusted to 7.3 with 5N NaOH.
(b) Buffer A: While adding Basal Medium Eagle (BME) containing Earle's Salts, L-glutamine and 25 mM HEPES, 3 liters of deionized water is stirred, followed by the addition and dissolution of […] of sodium bicarbonate. The solution is then equilibrated with 95% O2 /5% CO2 gas followed by titration to a pH of 7.4 with NaOH.
(c) Buffer B: 18.75 mg of collagenase and […] of BSA is dissolved in 25 ml of Buffer A.
(d) Buffer C: 0.3 g of BSA is dissolved in 300 ml of Buffer A.
(e) 6.25 mg Bacitracin is dissolved in 25 ml of Buffer A.
(f) ^125 I-(Leu-15)-Gastrin: 100 microcurie dissolved in 2.0 ml of Buffer A to make 50 microcurie/ml.
(g) ^125 I-(15-methionine)-Human Gastrin: 50 microcurie/ml.
(h) (Leu 15)-Gastrin: 5.2 mg of (Leu-15)- Gastrin is dissolved in 10 ml of Buffer A. At the time of assay 1:10 dilution is made and 10 μl assay tube is used.
A guinea pig (Hartley Strain) weighing 150-200 grams, is sacrificed by CO2 asphyxiation and the stomach immediately excised, cut along the greater curvature, cleaned out and immediately immersed in a beaker containing cold PBS, pH 7.3, to insure thorough cleaning. The fundic mucosa is gently scraped off the submucosa and added to a preweighed 50 ml plastic centrifuge tube containing 30 ml of cold Buffer A. The weight of the plastic centrifuge tube containing the buffer is then subtracted from the combined weight of the mucosa and the buffer-containing tube to give the weight of the mucosa. The weight of the mucosa thus determined is recorded for later calculations.
The mucosa is then washed twice in Buffer A. After the final wash, the tissue is minced and is placed in a 100-ml glass beaker containing about 1.0 ml of Buffer A, and washed twice again by repeated centrifugation at 50×g for 5 minutes each and aspiration of supernatant. The washed tissue fragments are then added to a glass Erlenmeyer flask containing 25 ml of Buffer B and incubated in a Dubnoff shaking water bath at 37° C. for 30 minutes in a 95% O2 - 5% CO2 atmosphere. After the incubation, the digested tissue fragments in the Collegenase-buffer solution are triturated, filtered through a 200-micron nylon mesh and centrifuged at 50×g for 5 minutes. The supernatant is aspirated and discarded, the tissue washed 2× in Buffer C, resuspended in same buffer, incubated in a 37° C. water bath in an atmosphere of 95% O2 - 5% CO2 for 5 minutes, and centrifuged. The pelleted glands are suspended in Buffer D at a desired concentration of 2x10^5 glands/ml to use in the receptor binding assay.
Six minisorp tubes (16×100 mm) are serially marked and divided into two groups thus: tubes #1, #2, and #3 are marked "T" for "Totals" and tubes #4, #5, and #6 are marked "NS" for "Non-Specifics." Into each of the six tubes are added 220 μl of prepared glands in Buffer D; 20 μl of Buffer A in tubes #1, #2, and #3; 10 μl, in tubes #4, #5 and #6; (10μ of (Leu-15)-Gastrin (25 μM) in tubes #4, #5, and #6. The six tubes are then transferred immediately to a 25° C. water bath and challenged each with 10 μl ^125 I-(Leu-15)-Gastrin diluted as per calculation. The tubes are then covered with a gas hood connected to a 95% O2 - 5% CO2 gas source and mechanically agitated in a shaker for 30 minutes.
At the end of the incubation period, the assay mixtures are each filtered through a Whatman glass fiber filter B on a Brandel tissue harvester and washed twice with Buffer A. The filters are pre-soaked in Buffer C before use. The filter strips are removed after the final wash and individual filters counted in a Gamma Counter. The counts from the "Non-Specific" tubes are then averaged and subtracted from the average "Totals" to give the Specific Counts. […]

IC50 [µM]	Structure (SMILES)
> 300	NC(=O)[C@H](CC(=O)O)NC(=O)[C@H]1Cc2c([nH]c3ccccc23)CN1 [Example 3, N-[(3R)-1,2,3,4-tetrahydro-9H-pyrido[3,4-b]-indole-3-carboxyl]-L-aspartic acid amide]
5.5	CC(C)C[C@H](NC(=O)[C@H]1Cc2c([nH]c3ccccc23)CN1C(=O)Nc1ccccc1)C(=O)N[C@@H](CC(=O)O)C(N)=O [Example 14, N-[(3R)-2-phenylcarbamoyl-1,2,3,4-tetrahydro-9H-pyrido[3,4-b]indole-3-carboxyl]-L-leucyl-L-aspartic acid amide]
60	CC(C)C[C@H](NC(=O)[C@@H]1Cc2c([nH]c3ccccc23)CN1)C(=O)N[C@@H](CC(=O)O)C(N)=O [Example 2, N-[(3S)-1,2,3,4-tetrahydro-9H-pyrido[3,4-b]indole-3-carboxyl]-L-leucyl-L-aspartic acid amide]
18	Cc1cccc(NC(=O)N2Cc3[nH]c4ccccc4c3C[C@@H]2C(=O)N[C@@H](C)C(=O)N[C@@H](CC(=O)O)C(N)=O)c1 [Example 58]
> 300	NC(=O)[C@H](CC(=O)O)NC(=O)[C@@H]1Cc2c([nH]c3ccccc23)CN1 [Example 4, N-[(3S)-1,2,3,4-tetrahydro-9H-pyrido[3,4-b]indole-3-carboxyl]-L-aspartic amide]
17	Cc1cccc(NC(=O)N2Cc3[nH]c4ccccc4c3C[C@@H]2C(=O)N[C@@H](CC(C)C)C(=O)N[C@H](CC(=O)O)C(N)=O)c1 [Example 51, N-[(3R)-2-(3-methylphenylcarbamoyl)-1,2,3,4-tetrahydro-9H-pyrido[3,4-b]indole-3-carboxyl]-L-leucyl-D-aspartic acid amide]
25	CC(C)C[C@H](NC(=O)[C@H]1Cc2c([nH]c3ccccc23)CN1C(=O)c1ccccc1)C(=O)N[C@@H](CC(=O)O)C(N)=O [Example 9, N-[(3R)-2-benzoyl-1,2,3,4-tetrahydro-9H-pyrido[3,4-b]indole-3-carboxyl]-L-leucyl-L-aspartic acid amide]
12	CC(C)C[C@H](NC(=O)[C@H]1Cc2c([nH]c3ccccc23)CN1)C(=O)N[C@@H](CC(=O)O)C(N)=O [Example 1, N-[(3R)-1,2,3,4-tetrahydro-9H-pyrido[3,4-b]indole-3-carboxyl]-L-leucyl-L-aspartic acid amide]
29	Cc1cccc(NC(=O)N2Cc3[nH]c4ccccc4c3C[C@H]2C(=O)N[C@@H](CC(C)C)C(=O)N[C@@H](CC(=O)O)C(N)=O)c1 [Example 12, N-[(3S)-2-(3-methylphenylcarbamoyl)-1,2,3,4-tetrahydro-9H-pyrido[3,4-b]indole-3-carboxyl]-L-leucyl-L-aspartic acid amide]

Second part, the molecule before the results:

Structure (SMILES)	IC50 [µM]
Cc1cccc(NC(=O)N2Cc3[nH]c4ccccc4c3C[C@H]2C(=O)N[C@H](CC(C)C)C(=O)N[C@H](CC(=O)O)C(N)=O)c1 [Example 49]	0.9
CC(C)C[C@H](NC(=O)[C@H]1Cc2c([nH]c3ccccc23)CN1C(=O)Nc1ccc(Cl)cc1)C(=O)N[C@@H](CC(=O)O)C(N)=O [Example 55, N-[(3R)-2-(4-chlorophenylcarbamoyl)-1,2,3,4-tetrahydro-9H-pyrido[3,4-b]indole-3-carboxyl]-L-leucyl-L-asartic acid amide]	3.3
CC(C)C[C@H](NC(=O)[C@H]1Cc2c([nH]c3ccccc23)CN1C(=O)Nc1ccc(Cl)c(Cl)c1)C(=O)NCCC(=O)O [Example 27]	0.41
O=C(Nc1ccccc1C(=O)N1CCCC1)[C@H]1Cc2c([nH]c3ccccc23)CN1C(=O)c1ccc2ccccc2c1 [Example 20, pyrrolidine-2-N-[(3R)-2-(2-naphthoyl)-1,2,3,4-tetrahydro-9H-pyrido[3,4-b]indole-3-carboxyl]aminobenzamide]	80
CCCCN(CCCC)C(=O)c1ccccc1NC(=O)[C@H]1Cc2c([nH]c3ccccc23)CN1C(=O)OCc1ccccc1 [Example 22]	> 300
CC(C)C[C@H](NC(=O)[C@H]1Cc2c([nH]c3ccccc23)CN1C(=O)Nc1cccc2ccccc12)C(=O)N[C@@H](CC(=O)O)C(N)=O [Example 67, N-[(3R)-2-(1-naphthylcarbamoyl)-1,2,3,4-tetrahydro-9H-pyrido[3,4-b]indole-3-carboxyl]-L-leucyl-L-aspartic acid amide]	2
Cc1cccc(NC(=O)N2Cc3[nH]c4ccccc4c3C[C@H]2C(=O)N[C@H](CC(C)C)C(=O)N[C@@H](CC(=O)O)C(N)=O)c1 [Example 52]	> 30
Cc1cccc(NC(=O)N2Cc3[nH]c4ccccc4c3C[C@@H]2C(=O)N(C)[C@@H](CC(C)C)C(=O)N[C@@H](CC(=O)O)C(N)=O)c1 [Example 53, N-[(3R)-2-(3-methylphenylcarbamoyl)-1,2,3,4-tetrahydro-9H-pyrido[3,4-b]indole-3-carboxyl]N'-methyl-L-leucine-L-aspartic acid amide]	6
Cc1cccc(NC(=O)N2Cc3[nH]c4ccccc4c3C[C@@H]2C(=O)N[C@@H](CC(C)C)C(=O)N[C@@H](Cc2ccccc2)C(N)=O)c1 [Example 42]	10
CCOC(=O)c1ccccc1NC(=O)[C@@H]1Cc2c([nH]c3ccccc23)CN1C(=O)OCc1ccccc1 [Example 23, ethyl 2-N-[(3S)-2-carbobenzoxy-1,2,3,4-tetrahydro-9H-pyrido[3,4-b]indole-3-carboxyl]aminobenzoate]	> 300
Cc1cccc(NC(=O)N2Cc3[nH]c4ccccc4c3C[C@@H]2C(=O)N[C@H](CC(C)C)C(=O)N[C@H](CC(=O)O)C(N)=O)c1 [Example 45]	> 10
O=C(NCC(c1ccccc1)c1ccccc1)[C@H]1Cc2c([nH]c3ccccc23)CN1 [Example 5, (3R)-3-(2,2'-diphenyl)ethylcarbamoyl-1,2,3,4-tetrahydro-9H-pyrido[3,4-b]indole]	59
Cc1cc(C)cc(NC(=O)N2Cc3[nH]c4ccccc4c3C[C@@H]2C(=O)N[C@@H](CC(C)C)C(=O)N[C@@H](CC(=O)O)C(N)=O)c1 [Example 60, N-[(3R)-2-(3,5-dimethylphenylcarbamoyl)-1,2,3,4-tetrahydro-9H-pyrido[3,4-b]indole-3-carboxyl]-L-leucyl-L-aspartic acid amide]	15
CC(C)C[C@H](NC(=O)[C@H]1Cc2c([nH]c3ccccc23)CN1C(=O)Nc1ccc2ccccc2c1)C(=O)N[C@@H](CC(=O)O)C(N)=O [Example 62]	1.2
CC[C@H](C)[C@H](NC(=O)[C@H]1Cc2c([nH]c3ccccc23)CN1C(=O)Nc1ccc(Cl)c(Cl)c1)C(=O)N[C@@H](CC(=O)O)C(N)=O [Example 24, N-[(3R)-2-(3,4-dichlorophenylcarbamoyl)-1,2,3,4-tetrahydro-9H-pyrido[3,4-b]indol-3-yl]carbonyl-L-isoleucyl-L-aspartic acid amide]	0.77
